# Results as given in BindingDB's records for patent US20250313563 (The Broad Institute, 2025).
# pIC50: −log10 of the molar value. Where “and” joins values, the source holds several entries; their conditions need not be identical. Equal entries are not always repeated.
# Assays:
# [1] = molecular target: Glycogen synthase kinase-3 beta (Homo sapiens, UniProt P49841); test: TR-FRET Assay
# How it was run: (§1)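 Enzyme and test compound were first incubated together for 30 minutes in assay buffer. The kinase reaction followed and was stopped with EDTA. The pSer641 signal was read by time-resolved FRET.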
# [2] = molecular target: Glycogen synthase kinase-3 alpha (Homo sapiens, UniProt P49840); test: TR-FRET Assay
# Sequence of Glycogen synthase kinase-3 alpha (P49840 whole entry): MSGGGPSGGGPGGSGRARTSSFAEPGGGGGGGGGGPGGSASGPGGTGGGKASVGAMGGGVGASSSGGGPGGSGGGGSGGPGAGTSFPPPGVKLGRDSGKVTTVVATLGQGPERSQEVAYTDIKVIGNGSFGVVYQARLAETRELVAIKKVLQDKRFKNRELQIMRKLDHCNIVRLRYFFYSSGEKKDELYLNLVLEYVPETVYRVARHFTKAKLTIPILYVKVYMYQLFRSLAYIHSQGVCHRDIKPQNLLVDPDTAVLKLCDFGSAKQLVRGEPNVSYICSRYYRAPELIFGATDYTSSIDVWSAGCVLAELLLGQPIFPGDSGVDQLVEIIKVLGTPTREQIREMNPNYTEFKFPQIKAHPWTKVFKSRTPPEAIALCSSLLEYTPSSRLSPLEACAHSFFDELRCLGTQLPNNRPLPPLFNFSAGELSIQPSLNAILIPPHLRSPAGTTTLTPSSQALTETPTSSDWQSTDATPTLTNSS
# How it was run: as §1
# Sequence of Glycogen synthase kinase-3 beta (P49841 whole entry): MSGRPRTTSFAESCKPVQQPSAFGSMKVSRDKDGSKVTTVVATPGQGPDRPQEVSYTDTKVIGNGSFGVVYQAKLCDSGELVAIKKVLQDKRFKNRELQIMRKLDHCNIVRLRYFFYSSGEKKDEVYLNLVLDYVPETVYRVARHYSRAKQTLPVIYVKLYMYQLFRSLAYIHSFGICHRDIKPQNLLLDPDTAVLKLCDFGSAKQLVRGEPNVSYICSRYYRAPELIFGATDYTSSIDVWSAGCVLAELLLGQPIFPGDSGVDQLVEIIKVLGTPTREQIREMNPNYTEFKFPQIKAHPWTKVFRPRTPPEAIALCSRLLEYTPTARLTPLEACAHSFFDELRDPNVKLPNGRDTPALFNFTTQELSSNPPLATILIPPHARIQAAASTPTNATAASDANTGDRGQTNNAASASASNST
Structure (SMILES),pIC50 [1],pIC50 [2]
"CCC1(c2cccc(N(C)c3ccc(F)nc3)c2)C2=CN=NC2NC2=C1C(=O)CC(C)(C)C2 (centres undefined) [US20250313563, Compound 917152]",6.00 to 7.00,> 7.00
"CCC1(c2cccc(N3CCCC[C@H]3C)c2)C2=CN=NC2NC2=C1C(=O)CC(C)(C)C2 (some centres undefined) [US20250313563, Compound 885228]",6.00 to 7.00,> 7.00
"CC1(C)CC(=O)C2=C(C1)NC1=C(CN=N1)C21CC2(COC2)C1 [US20250313563, Compound 912168]",< 5.30,< 5.30
"CC1(C)CC(=O)C2=C(C1)NC1=C(CN=N1)C21COC2(CN(S(=O)(=O)c3ccccc3)C2)C1 (centres undefined) [US20250313563, Compound 913002]",5.30 to 6.00,6.00 to 7.00
"CC[C@]1(c2cccc(-c3cnn(C)c3)c2)C2=CN=NC2NC2=C1C(=O)CC(C)(C)C2 (some centres undefined) [US20250313563, Compound 819577]",6.00 to 7.00,6.00 to 7.00
"CC1(C)CC(=O)C2=C(C1)NC1N=NC(C3(C(F)(F)F)CC3)=C1[C@]21CCc2c(F)cccc21 (some centres undefined) [US20250313563, Compound 816840]",6.00 to 7.00,5.30 to 6.00
"CC1(C)CC(=O)C2=C(C1)NC1=C(CN=N1)C21CCCCC1=O (centres undefined) [US20250313563, Compound 912105]",< 5.30,< 5.30
"C[C@H]1C[C@]2(CCO1)C1=C(N=NC1)NC1=C2C(=O)CC(C)(C)C1 [US20250313563, Compound 899560]",5.30 to 6.00,6.00 to 7.00
"C[S@+]([O-])c1cccc([C@]2(C)C3=C(CC(C)(C)CC3=O)NC3=C2C(CC(C)(C)C)N=N3)c1 (some centres undefined) [US20250313563, Compound 126190]",6.00 to 7.00,5.30 to 6.00
"CC1(C)CC(=O)C2=C(C1)NC1=C(CN=N1)C21CCCc2ccccc21 (centres undefined) [US20250313563, Compound 913219]",6.00 to 7.00,> 7.00
"Cn1ccc(S(=O)(=O)N2CCC3(CC2)C2=C(N=NC2)NC2=C3C(=O)CC(C)(C)C2)n1 [US20250313563, Compound 901471]",> 7.00 and 5.30 to 6.00,> 7.00 and 6.00 to 7.00
"CC1(C)CC(=O)C2=C(C1)NC1=C(CN=N1)C21CCC2(CCC(=O)N2)CC1 (centres undefined) [US20250313563, Compound 913056]",5.30 to 6.00,6.00 to 7.00
"CC[C@@]1(c2cccc(Br)c2)C2=C(C[C@H](C)CC2=O)NC2N=NC(C(F)(F)F)=C21 (some centres undefined) [US20250313563, Compound 828850]",6.00 to 7.00,6.00 to 7.00
"CCC1(c2cccc(N(C)c3nccc(OC)n3)c2)C2=CN=NC2NC2=C1C(=O)CC(C)(C)C2 (centres undefined) [US20250313563, Compound 929387]",> 7.00,> 7.00
"CCC1(c2cccc(-c3cnn(C)c3)c2)C2=CN=NC2NC2=C1C(=O)CC(C)(C)C2 (centres undefined) [US20250313563, Compound 816871]",6.00 to 7.00,> 7.00
"CC[C@@]1(c2cccc(-c3ccnc(C)c3)c2)C2=CN=NC2NC2=C1C(=O)N[C@H](C)C2 (some centres undefined) [US20250313563, Compound 926300]",6.00 to 7.00 and < 5.30,> 7.00 and 6.00 to 7.00
"CCC1(c2cccc(-c3ccnn3C)c2)C2=CN=NC2NC2=C1C(=O)CC(C)(C)C2 (centres undefined) [US20250313563, Compound 883852]",> 7.00,> 7.00
"CCC1(c2ccn(C)n2)C2=C(N=NC2)NC2=C1C(=O)CC(C)(C)C2 (centres undefined) [US20250313563, Compound 790619]",< 5.30,5.30 to 6.00
"CN1CCC2(C1)C1=C(N=NC1)NC1=C2C(=O)CC(C)(C)C1 (centres undefined) [US20250313563, Compound 841867]",< 5.30,< 5.30
"COc1cccc(S(=O)(=O)N2CC3(C2)C2=C(N=NC2)NC2=C3C(=O)CC(C)(C)C2)c1 [US20250313563, Compound 918276]",> 7.00,> 7.00
"C[C@@H]1CCC[C@@]2(C1)C1=C(N=NC1)NC1=C2C(=O)CC(C)(C)C1 [US20250313563, Compound 874532]",> 7.00,> 7.00
"CC[C@@]1(c2cccc(-c3ccncc3)c2)C2=CN=NC2NC2=C1C(=O)C[C@H](C)C2 (some centres undefined) [US20250313563, Compound 874316]",5.30 to 6.00,6.00 to 7.00
"CC[C@H]1C[C@@]2(CCO1)C1=C(N=NC1)NC1=C2C(=O)CC(C)(C)C1 [US20250313563, Compound 924311]",5.30 to 6.00,6.00 to 7.00
"CC[C@]1(c2cccc(N3C[C@@H](C)[C@@H](C)C3)c2)C2=CN=NC2NC2=C1C(=O)CC(C)(C)C2 (some centres undefined) [US20250313563, Compound 918326]",6.00 to 7.00,6.00 to 7.00
"CCCS(=O)(=O)c1cccc(C2(CC)C3=CN=NC3NC3=C2C(=O)CC(C)(C)C3)c1 (centres undefined) [US20250313563, Compound 917131]",> 7.00,> 7.00
"CC[C@@]1(c2cccc(N3C[C@H](C)[C@@H](C)C3)c2)C2=CN=NC2NC2=C1C(=O)CC(C)(C)C2 (some centres undefined) [US20250313563, Compound 924520]",< 5.30,< 5.30

# More lines, now with the values ahead:
pIC50 [1],pIC50 [2],Structure (SMILES)
> 7.00,> 7.00,"CC1(C)CC(=O)C2=C(C1)NC1=C(CN=N1)C21CCN(S(=O)(=O)c2ccc3c(c2)OCCO3)CC1 [US20250313563, Compound 947900]"
6.00 to 7.00,> 7.00,"CC[C@@]1(c2cccc(-c3ccnc(C)c3)c2)C2=C(N=NC2)NC2=C1C(=O)[C@H]1CC[C@@H]2C1 [US20250313563, Compound 943916]"
6.00 to 7.00,> 7.00,"CC1(C)CC(=O)C2=C(C1)NC1=C(CN=N1)C21COC2(CN(C(=O)C3CCCCC3)C2)C1 (centres undefined) [US20250313563, Compound 947291]"
> 7.00 and 5.30 to 6.00,> 7.00 and 6.00 to 7.00,"CC[C@]1(c2cccc(N(C)c3ncccn3)c2)C2=CN=NC2NC2=C1C(=O)NC(C)(C)C2 (some centres undefined) [US20250313563, Compound 943964]"
6.00 to 7.00,6.00 to 7.00,"CC[C@@]1(c2cccc(-c3cncn3C)c2)C2=CN=NC2NC2=C1C(=O)NC(C)(C)C2 (some centres undefined) [US20250313563, Compound 947820]"
6.00 to 7.00,> 7.00,"CCC1(c2cccc(-c3ccnc(C)c3C)c2)C2=CN=NC2NC2=C1C(=O)NC(C)(C)C2 (centres undefined) [US20250313563, Compound 945994]"
> 7.00,> 7.00,"CCC1(c2cccc(-c3cn(C)nc3C)c2)C2=C(CC(C)(C)NC2=O)NC2N=NC(Cl)=C21 (centres undefined) [US20250313563, Compound 948768]"
> 7.00 and 6.00 to 7.00,> 7.00,"CC[C@@]1(c2cccc(-c3cc(C)nn3C)c2)C2=C(CC(C)(C)CC2=O)NC2N=NC(C(F)(F)F)=C21 (some centres undefined) [US20250313563, Compound 947384]"
> 7.00 and 5.30 to 6.00,> 7.00 and 6.00 to 7.00,"CC[C@@]1(c2cccc(-c3ccncc3C)c2)C2=CN=NC2NC2=C1C(=O)NC1(CCC1)C2 (some centres undefined) [US20250313563, Compound 948512]"
< 5.30,5.30 to 6.00,"CC[C@]1(c2cccc(C3=CNN4CC(F)=CC(F)=C34)c2)C2=CN=NC2NC2=C1C(=O)NC(C)(C)C2 (some centres undefined) [US20250313563, Compound 949390]"
> 7.00,> 7.00,"CCC1(c2cccc(-c3ccncc3C)c2)C2=C(CC(C)(C)NC2=O)NC2N=NC(C)=C21 (centres undefined) [US20250313563, Compound 945599]"
6.00 to 7.00,> 7.00,"CC[C@]1(c2cccc(C(F)(F)F)c2)C2=CN=NC2NC2=C1C(=O)N(c1ccc(F)cc1)CC2 (some centres undefined) [US20250313563, Compound 948224]"
> 7.00,> 7.00,"CN(C)C(=O)c1ccc(S(=O)(=O)N2CCC3(CC2)C2=C(N=NC2)NC2=C3C(=O)CC(C)(C)C2)cc1 [US20250313563, Compound 945659]"
6.00 to 7.00,> 7.00,"CC[C@@]1(c2cccc(-c3c(F)cncc3OC)c2)C2=CN=NC2NC2=C1C(=O)CC(C)(C)C2 (some centres undefined) [US20250313563, Compound 947512]"
> 7.00 and 5.30 to 6.00,> 7.00,"CC[C@]1(c2cccc(-c3ccnn3C)c2)C2=CN=NC2NC2=C1C(=O)CC(C)(C)[C@H]2F (some centres undefined) [US20250313563, Compound 957507]"
6.00 to 7.00,> 7.00,"CC[C@]1(c2cccc(-c3cnn(C)c3C)c2)C2=C(CC(C)(C)NC2=O)NC2N=NC(C(F)(F)F)=C21 (some centres undefined) [US20250313563, Compound 947807]"
6.00 to 7.00,> 7.00,"CCC1(c2cccc(-c3ccnc4c3CCC4)c2)C2=C(N=NC2)NC2=C1C(=O)C(C)(C)C2 (centres undefined) [US20250313563, Compound 952557]"
6.00 to 7.00 and 5.30 to 6.00,> 7.00 and 6.00 to 7.00,"CC[C@@]1(c2cccc(-c3ccnc(C)c3C)c2)C2=CN=NC2NC2=C1C(=O)NC(C)(C)C2 (some centres undefined) [US20250313563, Compound 948184]"
6.00 to 7.00,> 7.00,"COc1ccc(C)c(S(=O)(=O)N2CCC3(CC2)C2=C(N=NC2)NC2=C3C(=O)CC(C)(C)C2)c1 [US20250313563, Compound 947245]"
< 5.30,< 5.30,"Cn1ccc(CN2CC3(C2)C2=C(N=NC2)NC2=C3C(=O)CC(C)(C)C2)n1 [US20250313563, Compound 932652]"
> 7.00,> 7.00,"CC1(C)CC(=O)C2=C(C1)NC1=C(CN=N1)C21CCN(S(=O)(=O)C2=CC=C3CC=CC=C3N2)CC1 [US20250313563, Compound 947476]"
< 5.30,< 5.30,"CC1(C)CC(=O)C2=C(C1)NC1=C(CN=N1)C21CN(Cc2ccccn2)C1 [US20250313563, Compound 929438]"
5.30 to 6.00,6.00 to 7.00,"CC[C@]1(c2cccc(-c3ccncc3C3CC3)c2)C2=CN=NC2NC2=C1C(=O)NC(C)(C)C2 (some centres undefined) [US20250313563, Compound 948642]"
5.30 to 6.00,6.00 to 7.00,"CCc1cc(N(C)c2cccc(C3(CC)C4=CN=NC4NC4=C3C(=O)CC(C)(C)C4)c2)ccn1 (centres undefined) [US20250313563, Compound 945600]"
> 7.00,> 7.00,"CCC1(c2cccc(-c3ccncc3F)c2)C2=C(CC(C)(C)NC2=O)NC2N=NC(C(F)(F)F)=C21 (centres undefined) [US20250313563, Compound 947866]"
5.30 to 6.00,6.00 to 7.00,"CC[C@@]1(c2cccc(-c3cnn(-c4ccccc4)c3F)c2)C2=CN=NC2NC2=C1C(=O)NC(C)(C)C2 (some centres undefined) [US20250313563, Compound 950821]"
